Data on 16 compounds can be found in patent US12649733B2, “3,6-diamino-pyridazin-3-yl derivatives, pharmaceutical compositions containing them and their uses as pro-apoptotic agents” (LES LABORATOIRES SERVIER, priority 2019, dated 2026).

One test has as its system H146 cells. The experiment in a line: H146 cell viability, MTT assay. The class given is cell-based. Particulars: Homo sapiens, NCI-H146, 48 h, 48 h exposure. The essentials:
(§1)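 Cells grown in RPMI 1640 with 10% heat-inactivated FBS at 37° C, 5% CO2, exposed 48 h to nine 3.16-fold serial compound dilutions in triplicate. MTT added for 4 h, SDS/HCl solubilisation overnight, absorbance at 540 nm; IC50 by four-parameter fit.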
On the technique in general: Formazan colour is commonly taken as a measure of viable cells.

For the next test, the system named is MOLT-4 cells. The experiment in a line: MOLT-4 cell viability, MTT assay. The class given is cell-based. Particulars: Homo sapiens, MOLT-4, 48 h, 48 h exposure. In short, it runs like this: as §1
A further test deals with T1, Bcl-xL protein (Homo sapiens, UniProt Q07817, N197C).
T1 construct: (2-197)[N197C]; His-His (two His8 stretches joined by a Gly/Ala/Ser/Thr linker)
T1 sequence (Q07817 2-197 N197C): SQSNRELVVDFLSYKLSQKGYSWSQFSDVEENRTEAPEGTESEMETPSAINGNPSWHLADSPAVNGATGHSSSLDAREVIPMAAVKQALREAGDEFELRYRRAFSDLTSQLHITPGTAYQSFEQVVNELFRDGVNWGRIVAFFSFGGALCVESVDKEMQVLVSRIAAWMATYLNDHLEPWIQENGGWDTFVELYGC
Description: Fluorescence quenching assay (PUMA peptide displacement). The class given is binding. To be noted: 1 nM protein, 400 nM peptide, 2 hours at 23° C.; KI determined from IC50. In short, it runs like this: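 Displacement of a TQ5WS-quencher-labelled PUMA peptide (400 nM) from Cy5-labelled His-tagged Bcl-xL 2-197 N197C (1 nM) raises fluorescence. An 11-point compound dilution was incubated 2 h at 23 °C in HEPES 10 mM, NaCl 150 mM, 0.05% Tween 20, pH 7.4, 5% DMSO. Fluorescence was read at Ex 620/Em 680 nm, and KI was derived from IC50.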

Test [1] deals with T2, BCLXL (Homo sapiens, UniProt Q07817, V10N/V9A). The experiment in a line: AlphaLISA assay (BIM peptide displacement). The class given is binding. Particulars: 20 pM protein, 1 nM peptide. The essentials:
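Competitive displacement of fluorescein-labelled BIM peptide (1 nM) from biotinylated GST-BCL-XL(2-209) (20 pM) in 10 mM HEPES, 150 mM NaCl, 0.05% Tween 20, pH 7.4, 4% DMSO; 11-point dilutions. Overnight at 23° C with acceptor beads, then donor beads 2 h; Alpha signal at 615 nm.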

Test [2] has as its target T2, BCLXL. Description: Fluorescence polarisation assay (PUMA-based probe displacement). Further: 20 nM protein, 10 nM fluorescent probe. The class given is binding.

T2 sequence (Q07817 with tags, fused parts or gaps V9A/V10N): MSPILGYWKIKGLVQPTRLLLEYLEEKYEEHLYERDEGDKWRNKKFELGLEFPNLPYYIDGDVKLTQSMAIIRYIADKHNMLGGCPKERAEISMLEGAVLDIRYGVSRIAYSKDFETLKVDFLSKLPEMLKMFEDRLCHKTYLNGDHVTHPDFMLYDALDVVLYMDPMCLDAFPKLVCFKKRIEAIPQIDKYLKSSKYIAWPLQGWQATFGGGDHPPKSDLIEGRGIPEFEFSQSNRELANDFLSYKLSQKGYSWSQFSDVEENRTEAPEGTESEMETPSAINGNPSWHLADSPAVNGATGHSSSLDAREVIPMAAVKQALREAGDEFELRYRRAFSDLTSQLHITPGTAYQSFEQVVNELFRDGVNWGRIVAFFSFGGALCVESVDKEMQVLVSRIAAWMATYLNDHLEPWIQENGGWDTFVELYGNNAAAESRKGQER

Broadly, the IC50 is the concentration that inhibits the measured activity by half. For orientation: Ki means the dissociation constant of the complex between target and ligand, obtained from inhibition or displacement. Regarding `CNCC#Cc1ccc(OCCCc2sc(N(CCCCO)c3cc(C)c(Nc4nc5ccccc5s4)nn3)nc2C(=O)O)c(F)c1` [Example 114, 2-({6-[(1,3-Benzothiazol-2-yl)amino]-5-methylpyridazin-3-yl}(4-hydroxybutyl)amino)-5-(3-{2-fluoro-4-[3-(methylamino)prop-1-yn-1-yl]phenoxy}propyl)-1,3-thiazole-4-carboxylic acid], the results for the IC50 in the test on H146 cells, with MOLT-4 cells and at BCLXL [1] were 1.58 nM, 3.81 nM and 0.053 nM, respectively. Besides, at Bcl-xL protein, the Ki was found to be 0.011 nM.

`Cc1cc(N(C)c2nc(C(=O)O)c(CC(C)COc3ccc(C#CCN(C)C)cc3F)s2)nnc1Nc1nc2ccccc2s1` (centres unmarked) [Example 116, 2-({6-[(1,3-Benzothiazol-2-yl)amino]-5-methylpyridazin-3-yl}(methyl)amino)-5-(3-{4-[3-(dimethylamino)prop-1-yn-1-yl]-2-fluorophenoxy}-2-methylpropyl)-1,3-thiazole-4-carboxylic acid]: the results for the IC50 in the test with H146 cells, in the test with MOLT-4 cells and on BCLXL [1] were 19.1 nM, 3.06 nM and 0.017 nM, respectively. Besides, at Bcl-xL protein, the Ki is 0.0086 nM.

Take `CNCC#Cc1ccc(OCCCc2sc(N(CC(O)CO)c3cc(C)c(Nc4nc5ccccc5s4)nn3)nc2C(=O)O)c(F)c1` (centres unmarked) [Example 117, 2-[[6-(1,3-Benzothiazol-2-ylamino)-5-methyl-pyridazin-3-yl]-(2,3-dihydroxypropyl)amino]-5-[3-[2-fluoro-4-[3-(methylamino)prop-1-ynyl]phenoxy]propyl]thiazole-4-carboxylic acid]: the half-inhibitory concentration (IC50) with H146 cells was found to be 49.6 nM; with MOLT-4 cells, 486 nM; at BCLXL [1], 0.0099 nM. The Ki on Bcl-xL protein is 0.0066 nM.

As for `CNCC#Cc1ccc(OCCCc2sc(N(CC(CO)OC)c3cc(C)c(Nc4nc5ccccc5s4)nn3)nc2C(=O)O)c(F)c1` (centres unmarked) [Example 118, 2-[[6-(1,3-Benzothiazol-2-ylamino)-5-methyl-pyridazin-3-yl]-(3-hydroxy-2-methoxy-propyl)amino]-5-[3-[2-fluoro-4-[3-(methylamino)prop-1-ynyl]phenoxy]propyl]thiazole-4-carboxylic acid], the results for the IC50 in the test with H146 cells, in the test on MOLT-4 cells and at BCLXL [1] were 32.6 nM, 96 nM and 0.018 nM, respectively. Also, at Bcl-xL protein, the Ki was 0.033 nM.

For `Cc1cc(N(CC(O)CO)c2nc(C(=O)O)c(CCCOc3ccc(C#CCN(C)C)cc3F)s2)nnc1Nc1nc2ccccc2s1` (centres unmarked) [Example 122, 2-[[6-(1,3-Benzothiazol-2-ylamino)-5-methyl-pyridazin-3-yl]-(2,3-dihydroxypropyl)amino]-5-[3-[4-[3-(dimethylamino)prop-1-ynyl]-2-fluoro-phenoxy]propyl]thiazole-4-carboxylic acid], the IC50 was found to be 51.4 nM in the test with H146 cells, 280 nM in the test with MOLT-4 cells and 0.0098 nM at BCLXL [1]. In addition, the Ki at Bcl-xL protein was 0.003 nM.

`CNCC#Cc1ccc(OCCCc2sc(N(CCCO)c3cc(C)c(Nc4nc5ccccc5s4)nn3)nc2C(=O)O)c(F)c1` [Example 127, 2-[[6-(1,3-Benzothiazol-2-ylamino)-5-methyl-pyridazin-3-yl]-(3-hydroxypropyl)amino]-5-[3-[2-fluoro-4-[3-(methylamino)prop-1-ynyl]phenoxy]propyl]thiazole-4-carboxylic acid]: the IC50 in the test with H146 cells was determined as 9.04 nM; in the test with MOLT-4 cells, 11.3 nM; on BCLXL [1] it was 0.0066 nM. The inhibitory constant (Ki) at BCLXL [2] is below 1 nM.

Regarding `CNCC#Cc1ccc(OCCCc2sc(N(CCCCCO)c3cc(C)c(Nc4nc5ccccc5s4)nn3)nc2C(=O)O)c(F)c1` [Example 128], the IC50 stood at 20.8 nM in the test with H146 cells, 18.1 nM with MOLT-4 cells and 0.013 nM on BCLXL [1]. In addition, the Ki on Bcl-xL protein turned out to be 0.028 nM.

As for `Cc1cc(N(CCCCO)c2nc(C(=O)O)c(CCCOc3ccc(C#CC[N+](C)(C)CCCS(=O)(=O)[O-])cc3F)s2)nnc1Nc1nc2ccccc2s1` [Example 130, 3-[3-[4-[3-[2-[[6-(1,3-Benzothiazol-2-ylamino)-5-methyl-pyridazin-3-yl]-(4-hydroxybutyl)amino]-4-carboxy-thiazol-5-yl]propoxy]-3-fluoro-phenyl]prop-2-ynyl-dimethyl-ammonio]propane-1-sulfonate], the IC50 in the test on H146 cells turned out to be 201 nM; in the test on MOLT-4 cells, 108 nM; at BCLXL [1], 0.0054 nM. Also, the Ki at BCLXL [2] is below 1 nM.

As to `Cc1cc(N(C)c2nc(C(=O)O)c(CC3(COc4ccc(C#CCN(C)C)cc4F)CC3)s2)nnc1Nc1nc2ccccc2s1` [Example 140, 2-({6-[(1,3-Benzothiazol-2-yl)amino]-5-methylpyridazin-3-yl}(methyl)amino)-5-{[1-({4-[3-(dimethylamino)prop-1-yn-1-yl]-2-fluorophenoxy}methyl)cyclopropyl]methyl}-1,3-thiazole-4-carboxylic acid], the IC50 with H146 cells was 142 nM; in the test with MOLT-4 cells, 23.4 nM; on BCLXL [1], 0.024 nM. For the same compound, the Ki at BCLXL [2] is below 1 nM.

Regarding `Cc1cc(N(CCCCCO)c2nc(C(=O)O)c(CCCOc3ccc(C#CCN(C)C)cc3F)s2)nnc1Nc1nc2ccccc2s1` [Example 141, 2-[[6-(1,3-Benzothiazol-2-ylamino)-5-methyl-pyridazin-3-yl]-(5-hydroxypentyl)amino]-5-[3-[4-[3-(dimethylamino)prop-1-ynyl]-2-fluoro-phenoxy]propyl]thiazole-4-carboxylic acid], the Ki at BCLXL [2] was below 1 nM; at Bcl-xL protein, 0.0055 nM. The concentration for half-maximal inhibition (IC50) at BCLXL [1] was found to be 0.014 nM.

In the case of `Cc1cc(N(CCCCO)c2nc(C(=O)O)c(CCCOc3ccc(C#CCN(CCCS(=O)(=O)O)CCCS(=O)(=O)O)cc3F)s2)nnc1Nc1nc2ccccc2s1` [Example 147, 2-({6-[(1,3-Benzothiazol-2-yl)amino]-5-methylpyridazin-3-yl}(4-hydroxybutyl)amino)-5-[3-(4-{3-[bis(3-sulfopropyl)amino]prop-1-yn-1-yl}-2-fluorophenoxy)propyl]-1,3-thiazole-4-carboxylic acid], on Bcl-xL protein, the Ki is 0.0097 nM. Also, at BCLXL [1], the concentration for half-maximal inhibition (IC50) was determined as 0.0071 nM.

In the case of `Cc1cc(N(CCCCO)c2nc(C(=O)O)c(CCCOc3ccc(C#CCNCCCS(=O)(=O)O)cc3F)s2)nnc1Nc1nc2ccccc2s1` [Example 148, 2-[[6-(1,3-Benzothiazol-2-ylamino)-5-methyl-pyridazin-3-yl]-(4-hydroxybutyl)amino]-5-[3-[2-fluoro-4-[3-(3-sulfopropylamino)prop-1-ynyl]phenoxy]propyl]thiazole-4-carboxylic acid], the Ki at Bcl-xL protein is 0.0012 nM. Also, at BCLXL [1], the half-maximal inhibitory concentration (IC50) is 0.0057 nM.

Turning to `Cc1cc(N(C)c2nc(C(=O)O)c(C[C@H](C)COc3ccc(C#CCN(C)C)cc3F)s2)nnc1Nc1nc2ccccc2s1` [Example 161, 2-({6-[(1,3-Benzothiazol-2-yl)amino]-5-methylpyridazin-3-yl}(methyl)amino)-5-[(2S)-3-{4-[3-(dimethylamino)prop-1-yn-1-yl]-2-fluorophenoxy}-2-methylpropyl]-1,3-thiazole-4-carboxylic acid], the IC50 with H146 cells came out at 30.2 nM; in the test on MOLT-4 cells it was 3.23 nM; at BCLXL [1], 0.032 nM. For the same compound, at BCLXL [2], the Ki is below 1 nM.

For the compound `Cc1cc(N(CCCCNCCN2CCN(C)CC2)c2nc(C(=O)O)c(CCCOc3ccc(C#CCN(C)C)cc3F)s2)nnc1Nc1nc2ccccc2s1` [Example 168, 2-[[6-(1,3-Benzothiazol-2-ylamino)-5-methyl-pyridazin-3-yl]-[4-[2-(4-methylpiperazin-1-yl)ethylamino]butyl]amino]-5-[3-[4-[3-(dimethylamino)prop-1-ynyl]-2-fluoro-phenoxy]propyl]thiazole-4-carboxylic acid], the IC50 came out at 178 nM in the test with MOLT-4 cells and 0.012 nM on BCLXL [1]. In addition, the results for the Ki on BCLXL [2] and on Bcl-xL protein were below 1 nM and 0.0026 nM, respectively.

As to `Cc1cc(N(CCCC(O)CNCCN2CCCCC2)c2nc(C(=O)O)c(CCCOc3ccc(C#CCN(C)C)cc3F)s2)nnc1Nc1nc2ccccc2s1` (centres unmarked) [Example 173, 2-[[6-(1,3-Benzothiazol-2-ylamino)-5-methyl-pyridazin-3-yl]-[4-hydroxy-5-[2-(1-piperidyl)ethylamino]pentyl]amino]-5-[3-[4-[3-(dimethylamino)prop-1-ynyl]-2-fluoro-phenoxy]propyl]thiazole-4-carboxylic acid], the figures for the IC50 in the test on H146 cells, with MOLT-4 cells and on BCLXL [1] were 208 nM, 127 nM and 0.0079 nM, respectively. For the same compound, the Ki at Bcl-xL protein is 0.0033 nM.

Consider `CNCC#Cc1ccc(OC/C(C)=C/c2sc(N(C)c3cc(C)c(Nc4nc5ccccc5s4)nn3)nc2C(=O)O)c(F)c1` [Example 174, 2-({6-[(1,3-Benzothiazol-2-yl)amino]-5-methylpyridazin-3-yl}(methyl)amino)-5-[(1E)-3-{2-fluoro-4-[3-(methylamino)prop-1-yn-1-yl]phenoxy}-2-methylprop-1-en-1-yl]-1,3-thiazole-4-carboxylic acid], for which the values for the IC50 with H146 cells, in the test with MOLT-4 cells and on BCLXL [1] were 12600 nM, 1660 nM and 0.6 nM, respectively. Moreover, the Ki on Bcl-xL protein is 0.043 nM.
